Source: publication PMC3750009, “Non-peptidic Cruzain Inhibitors with Trypanocidal Activity Discovered by Virtual Screening and In Vitro Assay” (PLoS Neglected Tropical Diseases, 2013)
Read-outs that look alike come from different tables or passages of the source.

Assays:
[1] = system: T. cruzi Tulahuen lacZ strain; assay: in vitro trypanocidal activity, infected LLC-MK2 cells, CPRG readout; assay type: cell-based, Trypanosoma cruzi; settings: for IC50: Trypanosoma cruzi
Experimental: In vitro trypanocidal activity of the compounds was evaluated against amastigote forms of Tulahuen strain that was genetically modified to express β-galactosidase gene from E. coli (lacZ). A monkey kidney cell strain (LLC-MK2 - ATCC) was resuspended in RPMI medium without phenol red (Gibco-BRL Life Technologies, Grand Island, NY) containing 10% fetal bovine serum (Life Technologies Inc., Bethesda, MD) and antibiotics (Sigma Chemical Co., St. Louis) at 2×10^3 cells/well and were cultured in 96-well plates for 24 h. The cells were infected with 1×10^4 trypomastigote forms of T. cruzi Tulahuen strain, and after 24 h compounds were added with different concentrations (250, 125, 62.5, 31.25, 15.6, 7.8, 3.9 and 1.95 µM). After 4 days of culture, 50 µL of PBS containing 0.5% of Triton X-100 and 100 µM Chlorophenol Red-β-D-galactoside (CPRG - Sigma) were added. Plates were incubated at 37°C for 4 h and absorbance was read at 570 nm. Benznidazole (N-benzyl-2-nitro-1-imidazolacetamide), in the same concentrations as above was used as a reference trypanocidal drug (positive control), [41].

[2] = mammalian cell cytotoxicity, propidium iodide flow cytometry; assay type: cell-based, mice; settings: C57BL/6, mouse, primary spleen cells, mouse spleen cells, 24 h; read-out: Cytotoxic IC50
Experimental: (§1) Mammalian cell cytotoxicity was evaluated using the protocol previously reported. Spleen cells from C57BL/6 mice were isolated by mechanical dissociation, followed by incubation for 5 min with red blood cell lysis buffer (one part of 0.17 M Tris–HCl [pH 7.5] and nine parts of 0.16 M ammonium chloride). The cells were washed and suspended in RPMI 1640 medium (Gibco-BRL Life Technologies, Grand Island, NY) supplemented with 10% fetal bovine serum (Life Technologies Inc., Bethesda, MD) and antibiotics (Sigma). The cell suspension was cultured in flat-bottom 96-well plates at 5×10^5 cells per well with different concentrations of the tested compounds and incubated at 37°C in a humidified atmosphere of 5% CO2 for 24 h. Tween 20 at 0.5% was used as cell death positive control. To analyze cytotoxicity, cells were harvested, incubated with 10 µg mL^−1 propidium iodide (Sigma) and after 15 min data were acquired using a FACSCantoII (Becton-Dickinson Immunocytometry System Inc., San Jose, CA, USA). Data analysis was performed using FlowJo software (Ashland, OR, USA). The range of concentrations used for assaying cytotoxicity was 250, 125, 62.5, 31.25, 15.6, 7.8, 3.9, and 1.95 (µM).

[3] = system: Spleen cells from C57BL/6 mice; assay: as above; assay type: cell-based; settings: for cytotoxicity ratio (IC50(cyto)/IC50)(T. cruzi): spleen cell IC50 over T. cruzi IC50; for IC50: mouse spleen cells, 24 h, read-out: Cytotoxic IC50
Experimental: as §1

[4] = system: Chagas disease; set-up: method as in PMID 19900395; settings: acute phase ref 5; cited from earlier work
[5] = set-up: method as in PMID 19620707; settings: pre-clinical trials ref 13; cited from earlier work
[6] = system: Chagas disease; set-up: method as in PMID 19620707; settings: mice and dogs ref 13; cited from earlier work
[7] = target: T1, cruzain (Trypanosoma cruzi, UniProt P25779); assay: cruzain enzyme assay, IC50 determination (Z-FR-MCA fluorescence); assay type: biochemical; settings: for IC50: Neq42 analogs, SAR, unit inferred, read-out: IC50, cruzain inhibition (Figure 6)
T1 construct: Recombinant cruzain enzyme was expressed and purified as previously described; made in house
T1 sequence (P25779 123-337 limits assumed): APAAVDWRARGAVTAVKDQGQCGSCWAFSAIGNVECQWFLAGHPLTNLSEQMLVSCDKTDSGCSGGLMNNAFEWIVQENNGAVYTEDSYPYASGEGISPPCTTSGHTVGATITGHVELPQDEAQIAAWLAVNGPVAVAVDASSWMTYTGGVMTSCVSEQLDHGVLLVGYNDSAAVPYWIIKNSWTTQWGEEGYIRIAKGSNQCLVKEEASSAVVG
Experimental: (§2) Recombinant cruzain enzyme was expressed and purified as previously described. The activity of the cruzain enzyme was measured and quantified through active-site titration with the irreversible inhibitor E-64, as described previously. Cathepsin L enzyme and all reagents used for buffer preparation were purchased from Sigma-Aldrich (St. Louis, MO, USA). The compounds screened against the enzymes were purchased from Enamine (Kiev, Ukraine), Chemdiv (San Diego, CA, USA), Asinex (Moscow, Russia) and IBScreen (Moscow, Russia) and had more than 95%purity, according to these suppliers. All experiments were carried out with freshly made solutions.
(§3) The activity of cruzain was measured in 100 mM phosphate buffer, 100 mM NaCl, 10 mM EDTA, DMSO (5.0% v/v), Triton X-100 (0.01% v/v) and 5.0 mM DTT at pH 6.3. The activity of cathepsin L was measured in 100 mM sodium acetate buffer, 100 mM NaCl, 10 mM EDTA, DMSO (5.0% v/v), Triton X-100 (0.01% v/v) and 5.0 mM DTT at pH 5.5. Both assays were carried out with 2 nM of the respective enzymes and 2 µM of the substrate Z-FR-MCA.
The reaction started by the addition of the substrate Z-FR-MCA was monitored by recording the emission at wavelength 460 nm while exciting at 360 nm. Fluorescence was measured using a Synergy HT fluorimeter microplate reader (Biotek). The percentage of inhibition was calculated according to following equation: [drawing 1] where vi and v0 are the initial velocities determined in presence and absence of inhibitors, respectively. The activity of enzyme in the presence of inhibitors was measured in 11 different concentrations in order to obtain the dose-response curves, which were analyzed using the Origin 7.0 program to determine the IC50 values. All experiments were repeated at least in duplicate.

[8] = target: T1, cruzain; assay: cruzain affinity constant (Ki) and mechanism determination, Michaelis-Menten curves; assay type: biochemical; settings: pH 6.3, 0.01% Triton X-100, inhibitor 30, 50 and 70 µM
Experimental: as §2
as §3, with “Both assays were carried out with 2 nM of the respective enzymes and 2 µM of the substrate Z-FR-MCA.” left out
(§4) The Michaelis-Menten curves were determined in the absence and presence of 30, 50 and 70 µM respectively of each inhibitor. […] The reaction was started and monitored as described above. The mechanisms of inhibition and K i values were determined using the kinetic module of SigmaPlot 10.0 by adjusting the velocities into the competitive, non-competitive and uncompetitive modes. […]

[9] = target: T2, cathepsin L (Homo sapiens, UniProt P07711); assay: cathepsin L enzyme assay, IC50 determination (Z-FR-MCA fluorescence); assay type: biochemical; settings: pH 5.5, 0.01% Triton X-100, 2 nM enzyme, 2 µM Z-FR-MCA
T2 construct: Cathepsin L enzyme and all reagents used for buffer preparation were purchased from Sigma-Aldrich; purchased Sigma-Aldrich (St. Louis, MO, USA)
T2 sequence (P07711 114-333): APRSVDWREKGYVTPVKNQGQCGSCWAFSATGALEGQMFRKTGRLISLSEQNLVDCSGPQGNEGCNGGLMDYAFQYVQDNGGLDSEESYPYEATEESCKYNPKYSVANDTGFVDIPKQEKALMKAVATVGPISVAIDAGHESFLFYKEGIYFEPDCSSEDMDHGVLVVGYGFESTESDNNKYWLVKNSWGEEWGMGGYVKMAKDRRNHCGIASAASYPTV
Experimental: as §2
as §3, with “Both assays were carried out with 2 nM of the respective enzymes and 2 µM of the substrate Z-FR-MCA.” left out
The reaction started by the addition of the substrate Z-FR-MCA was monitored by recording the emission at wavelength 460 nm while exciting at 360 nm. Fluorescence was measured using a Synergy HT fluorimeter microplate reader (Biotek). The percentage of inhibition was calculated according to following equation: [drawing 1] where vi and v0 are the initial velocities determined in presence and absence of inhibitors, respectively. […]

[10] = target: T2, cathepsin L; assay: cathepsin L affinity constant (Ki) determination, Michaelis-Menten curves; assay type: biochemical; settings: pH 5.5, 0.01% Triton X-100, inhibitor 30, 50 and 70 µM
Experimental: as §2
as §3, with “Both assays were carried out with 2 nM of the respective enzymes and 2 µM of the substrate Z-FR-MCA.” left out
as §4

[11] = LLC-MK2, 96 h, Tulahuen lacZ strain, 4 days of culture, read-out: Trypanocidal activity IC50
[12] = LLC-MK2, Tulahuen lacZ strain, read-out: trypanocidal pIC50 (converted)
[13] = TULAHUEN, LLC-MK2, average for compounds Neq165, Neq172, Neq176 and Neq177, read-out: trypanocidal pIC50 on average (converted)

For `O=C(Cn1ccnc1[N+](=O)[O-])NCc1ccccc1` [Bz, N-benzyl-2-nitro-1-imidazolacetamide, reference compound], the IC50 [1, 11] was 64.3 ± 12.3 µM, the IC50 [1, 12] was 63.1 µM and the IC50 at 24 h [2] was over 500 µM. The “cytotoxicity ratio (IC50(cyto)/IC50)(T. cruzi)” value [3] was 8 and the successful cure [4] was “up to 80%”.

In the case of `CN1CCN(C(=O)N[C@@H](Cc2ccccc2)C(=O)N[C@H](/C=C/S(=O)(=O)c2ccccc2)CCc2ccccc2)CC1` [Compound K11777], the mutagenicity [5] is listed as “non-mutagenic”, the pharmacokinetic profile [5] is listed as “acceptable pharmacokinetic profile” and the tolerability [5] is listed as “well tolerated”. For the same compound, the “efficacy in models of acute and chronic Chagas disease” value [6] was “demonstrated efficacy”.

Compound `NC(=O)c1ccsc1NC(=O)CSc1nnc(CN2CCCCC2)n1Cc1ccccc1` [Neq42] has an IC50 [7] of 21.6 ± 5.4 µM, a Ki [8] of 18.5 ± 5.5 µM and an IC50 [9] of 35.1 ± 11 µM. The Ki [10] was 35.6 ± 8.2 µM, the IC50 [1, 11] was 10.6 ± 0.1 µM and the IC50 [1, 12] was 12.6 µM. The preliminary trypanocidal activity ([1]; single dose of 250 µM, Tulahuen lacZ strain) was “active”, the IC50 at 24 h [2] was 50 µM and the IC50 [3] was 49.9 ± 2.7 µM. The “cytotoxicity ratio (IC50(cyto)/IC50)(T. cruzi)” value [3] was 5.

In the case of `Cc1nnc(SCC(=O)Nc2sccc2C(N)=O)n1Cc1ccccc1` [Neq165], the IC50 [7] is reported as 31.3 ± 1.2 µM, the IC50 [1, 11] is reported as 153.4 ± 0.6 µM and the IC50 [1, 13] is reported as about 158 µM.

Work on `NC(=O)c1ccsc1NC(=O)COC(=O)[C@@H](Cc1ccccc1)NC(=O)OCc1ccccc1` [Neq172] yielded an IC50 [7] of 73.1 ± 4.9 µM, an IC50 [1, 11] of 166 ± 12.9 µM and an IC50 [1, 13] of about 158 µM. It also gave an IC50 at 24 h [2] of 23 µM and an IC50 [3] of 23.1 ± 2.7 µM.

For `NC(=O)c1ccsc1NC(=O)CSc1nnc[nH]1` [Neq176], the IC50 [7] was 68.5 ± 3 µM, the “ligand efficiency (LE)” value ([7]; from cruzain potency) was 0.33 kcal mol^-1 atom^-1 and the IC50 [1, 11] was 108 ± 52.2 µM. It also gave an IC50 [1, 13] of about 158 µM and an IC50 at 24 h [2] of over 250 µM.

Compound `CC(Sc1nncn1-c1ccccc1)C(=O)Nc1sccc1C(N)=O` (stereo not drawn) [Neq177] has an IC50 [7] of 48.9 ± 10 µM, an IC50 [1, 11] of 137 ± 14.4 µM and an IC50 [1, 13] of about 158 µM. For the same compound, the IC50 at 24 h [2] was over 250 µM.
